Measurements published in patent publication US11046716B2, “Beta-lactamase inhibitors” (priority 2015, dated 2021).

Columns and labels:
VIM-2 = molecular target: T1, VIM-2 (Escherichia coli, UniProt Q5U7L7); experiment: β-lactamase enzyme inhibition assay, VIM-2 (nitrocefin substrate); type: biochemical; details: Class B; nitrocefin substrate, 486 nm; read-out: VIM-2
T1 construct: made in house; host or cells: E. coli BL21(DE3)
Method in brief: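 Nitrocefin hydrolysis (100 μM final, A486 read for 10 min) by purified VIM-2 after a 15-min, 37° C enzyme–inhibitor preincubation. IC50 is the concentration halving initial hydrolysis rate, derived from percent inhibition against no-inhibitor wells.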

OXA-48 = OXA-48 (UniProt Q6XEC0); experiment: β-lactamase enzyme inhibition assay, Class D oxacillinase; type: biochemical; details: read-out: OXA-48
SHV-5 = molecular target: T2, SHV-5 (Klebsiella pneumoniae, UniProt P0A3M1); experiment: β-lactamase enzyme inhibition assay, SHV-5 (cefotaxime substrate); type: biochemical
T2 construct: made in house; host or cells: E. coli BL21(DE3)
Method in brief: (§1)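 Untagged enzyme from E. coli BL21(DE3), purified by Capto S then Superdex 75; 15 min 37 °C preincubation with inhibitor; KPC-2 read with imipenem at 300 nm, SHV-5 with cefotaxime at 260 nm, OXA-1 with nitrocefin 100 μM final at 486 nm; 10 min kinetic read; IC50 vs uninhibited wells.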

[1] = tested on: K. pneumoniae expressing the Class A carbapenemase KPC-2; experiment: Broth microdilution MIC assay with meropenem, K. pneumoniae KPC-2; type: cell-based; details: Fixed Mero (meropenem) 4 μg/mL; K. p. 156319 KPC-3
Method in brief: (§2)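 CLSI broth microdilution in cation-adjusted Mueller Hinton broth measured growth of β-lactamase-expressing strains, grown 3-5 h beforehand. The β-lactam partner was held at 4 μg/ml final while test compound was titrated 2-fold from 16 to 0.125 μg/mL final. After 16-20 h at 37° C, the compound MIC was determined by eye.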

KPC-2 = molecular target: T3, KPC-2 (Klebsiella pneumoniae, UniProt Q9F663); experiment: β-lactamase enzyme inhibition assay, KPC-2 (imipenem substrate); type: biochemical; details: Class A; imipenem substrate, 300 nm; read-out: KPC-2
T3 construct: made in house; host or cells: E. coli BL21(DE3)
Method in brief: as §1

[2] = tested on: E. coli expressing the Class A Extended Spectrum Beta-Lactamase (ESBL) CTX-M-15; experiment: Broth microdilution MIC assay with ceftazidime, E. coli CTX-M-15; type: cell-based; details: Fixed CAZ (ceftazidime) 4 μg/mL; E. coli ESBL4 CTX-M-15
Method in brief: as §2

AmpC = molecular target: T4, AmpC (Enterobacter cloacae, UniProt P05364); experiment: β-lactamase enzyme inhibition assay, p99 AmpC (nitrocefin substrate); type: biochemical
T4 construct: made in house; host or cells: E. coli BL21(DE3)
Method in brief: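 Untagged enzyme from E. coli BL21(DE3), purified by Capto S then Superdex 75; 15 min 37 °C preincubation with inhibitor; 10 min kinetic read; IC50 vs uninhibited wells.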

[3] = tested on: E. cloacae expressing the Class C P99; experiment: Broth microdilution MIC assay with ceftazidime, E. cloacae P99; type: cell-based; details: Fixed CAZ (ceftazidime) 4 μg/mL; E. cl. 144200 p99 AmpC
Method in brief: as §2

[4] = tested on: K. pneumoniae producing the Class D carbapenemase OXA-48; experiment: Broth microdilution MIC assay with meropenem, K. pneumoniae OXA-48; type: cell-based; details: Fixed Mero (meropenem) 4 μg/mL; K. p. 11978 OXA-48
Method in brief: as §2

[5] = tested on: K. pneumoniae expressing the class A carbapenemase KPC-2 and the class B carbapenemase VIM-4; experiment: Broth microdilution MIC assay with meropenem, K. pneumoniae KPC-2 and VIM-4; type: cell-based; details: Fixed Mero (meropenem) 4 μg/mL; K. p. A-1797 KPC-2 VIM-4
Method in brief: as §2

[6] = tested on: P. aeruginosa expressing the Class B carbapenemase VIM-2; experiment: Broth microdilution MIC assay with meropenem, P. aeruginosa VIM-2; type: cell-based; details: Fixed Mero (meropenem) 4 μg/mL; P. aerug. 2775 VIM-2
Method in brief: as §2

T4 sequence (P05364 21-381): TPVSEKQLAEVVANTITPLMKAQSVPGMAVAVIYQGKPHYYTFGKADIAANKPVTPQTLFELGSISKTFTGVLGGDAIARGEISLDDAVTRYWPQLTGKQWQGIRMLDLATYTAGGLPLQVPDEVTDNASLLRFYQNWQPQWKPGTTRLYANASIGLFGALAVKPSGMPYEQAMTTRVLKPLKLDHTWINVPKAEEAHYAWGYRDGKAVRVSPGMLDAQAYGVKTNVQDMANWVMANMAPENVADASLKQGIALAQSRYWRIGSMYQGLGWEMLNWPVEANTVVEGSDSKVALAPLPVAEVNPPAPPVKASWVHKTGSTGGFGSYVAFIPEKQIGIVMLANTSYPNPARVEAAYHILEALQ
T3 sequence (Q9F663 25-293, looked up): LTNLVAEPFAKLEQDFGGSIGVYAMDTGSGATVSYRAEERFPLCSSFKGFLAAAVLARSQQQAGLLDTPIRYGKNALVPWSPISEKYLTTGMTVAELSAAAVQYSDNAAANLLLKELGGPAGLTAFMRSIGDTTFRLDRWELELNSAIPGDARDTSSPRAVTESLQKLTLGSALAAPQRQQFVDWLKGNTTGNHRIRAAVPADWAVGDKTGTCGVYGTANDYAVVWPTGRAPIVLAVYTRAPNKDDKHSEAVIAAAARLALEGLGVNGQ
T2 sequence (P0A3M1 22-286): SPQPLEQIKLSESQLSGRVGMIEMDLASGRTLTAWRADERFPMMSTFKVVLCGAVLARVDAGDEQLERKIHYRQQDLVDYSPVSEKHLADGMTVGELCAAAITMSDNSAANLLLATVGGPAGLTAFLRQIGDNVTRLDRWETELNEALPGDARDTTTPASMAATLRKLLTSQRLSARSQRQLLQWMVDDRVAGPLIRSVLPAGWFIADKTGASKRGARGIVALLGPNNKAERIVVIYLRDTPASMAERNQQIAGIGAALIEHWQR

Compound	IC50 (VIM-2)	IC50 (OXA-48)	IC50 (SHV-5)	MIC (μg/mL) of Exemplary Compounds in presence of fixed β-lactams: K. p. 156319 KPC-3 [1]	IC50 (KPC-2)	MIC (μg/mL) of Exemplary Compounds in presence of fixed β-lactams: E. coli ESBL4 CTX-M-15 [2]	IC50 (AmpC)	MIC (μg/mL) of Exemplary Compounds in presence of fixed β-lactams: E. cl. 144200 p99 AmpC [3]	MIC (μg/mL) of Exemplary Compounds in presence of fixed β-lactams: K. p. 11978 OXA-48 [4]	MIC (μg/mL) of Exemplary Compounds in presence of fixed β-lactams: K. p. A-1797 KPC-2 VIM-4 [5]	MIC (μg/mL) of Exemplary Compounds in presence of fixed β-lactams: P. aerug. 2775 VIM-2 [6]
O=C(Cn1cc(C(=O)N[C@H]2CCNC2)nn1)N[C@H]1Cc2cccc(C(=O)O)c2OB1O [Example 81, (R)-2-hydroxy-3-(2-(4-(((S)-pyrrolidin-3-yl)carbamoyl)-1H-1,2,3-triazol-1-yl)acetamido)-3,4-dihydro-2H-benzo[e][1,2]oxaborinine-8-carboxylic acid]	< 100 nM	100 to 1000 nM	< 100 nM	C (C represents an MIC of <1 μg/mL)	< 100 nM	C (C represents an MIC of <1 μg/mL)	< 100 nM	C (C represents an MIC of <1 μg/mL)	C (C represents an MIC of <1 μg/mL)	C (C represents an MIC of <1 μg/mL)	C (C represents an MIC of <1 μg/mL)
NC1CCN(C(=O)c2cn(CC(=O)N[C@H]3Cc4cccc(C(=O)O)c4OB3O)nn2)CC1 [Example 82, (R)-3-(2-(4-(4-aminopiperidine-1-carbonyl)-1H-1,2,3-triazol-1-yl)acetamido)-2-hydroxy-3,4-dihydro-2H-benzo[e][1,2]oxaborinine-8-carboxylic acid]	100 to 1000 nM	100 to 1000 nM	< 100 nM	C (C represents an MIC of <1 μg/mL)	< 100 nM	C (C represents an MIC of <1 μg/mL)	< 100 nM	C (C represents an MIC of <1 μg/mL)	C (C represents an MIC of <1 μg/mL)	B (B represents an MIC between 1 and 16 μg/mL inclusive)	C (C represents an MIC of <1 μg/mL)
O=C(Cn1cc(C(=O)NC2CCNCC2)nn1)N[C@H]1Cc2cccc(C(=O)O)c2OB1O [Example 83, (R)-2-hydroxy-3-(2-(4-(piperidin-4-ylcarbamoyl)-1H-1,2,3-triazol-1-yl)acetamido)-3,4-dihydro-2H-benzo[e][1,2]oxaborinine-8-carboxylic acid]	< 100 nM	100 to 1000 nM	100 to 1000 nM	C (C represents an MIC of <1 μg/mL)	100 to 1000 nM	C (C represents an MIC of <1 μg/mL)	< 100 nM	C (C represents an MIC of <1 μg/mL)	B (B represents an MIC between 1 and 16 μg/mL inclusive)	B (B represents an MIC between 1 and 16 μg/mL inclusive)	C (C represents an MIC of <1 μg/mL)
O=C(Cn1cc(C(=O)N[C@@H]2CCNC2)nn1)N[C@H]1Cc2cccc(C(=O)O)c2OB1O [Example 84, (R)-2-hydroxy-3-(2-(4-(((R)-pyrrolidin-3-yl)carbamoyl)-1H-1,2,3-triazol-1-yl)acetamido)-3,4-dihydro-2H-benzo[e][1,2]oxaborinine-8-carboxylic acid]	< 100 nM	100 to 1000 nM	100 to 1000 nM	B (B represents an MIC between 1 and 16 μg/mL inclusive)	< 100 nM	C (C represents an MIC of <1 μg/mL)	< 100 nM	C (C represents an MIC of <1 μg/mL)	B (B represents an MIC between 1 and 16 μg/mL inclusive)	C (C represents an MIC of <1 μg/mL)	C (C represents an MIC of <1 μg/mL)
N[C@@H]1CCN(C(=O)c2cn(CC(=O)N[C@H]3Cc4cccc(C(=O)O)c4OB3O)nn2)C1 [Example 85, (R)-3-(2-(4-((R)-3-aminopyrrolidine-1-carbonyl)-1H-1,2,3-triazol-1-yl)acetamido)-2-hydroxy-3,4-dihydro-2H-benzo[e][1,2]oxaborinine-8-carboxylic acid]	100 to 1000 nM	100 to 1000 nM	100 to 1000 nM	C (C represents an MIC of <1 μg/mL)	100 to 1000 nM	C (C represents an MIC of <1 μg/mL)	< 100 nM	C (C represents an MIC of <1 μg/mL)	B (B represents an MIC between 1 and 16 μg/mL inclusive)	B (B represents an MIC between 1 and 16 μg/mL inclusive)	C (C represents an MIC of <1 μg/mL)
CC(C)(CN)CNC(=O)c1cn(CC(=O)N[C@H]2Cc3cccc(C(=O)O)c3OB2O)nn1 [Example 86, (R)-3-(2-(4-((3-amino-2,2-dimethylpropyl)carbamoyl)-1H-1,2,3-triazol-1-yl)acetamido)-2-hydroxy-3,4-dihydro-2H-benzo[e][1,2]oxaborinine-8-carboxylic acid]	< 100 nM	1000 to 10000 nM	100 to 1000 nM	C (C represents an MIC of <1 μg/mL)	< 100 nM	C (C represents an MIC of <1 μg/mL)	100 to 1000 nM	C (C represents an MIC of <1 μg/mL)	B (B represents an MIC between 1 and 16 μg/mL inclusive)	C (C represents an MIC of <1 μg/mL)	C (C represents an MIC of <1 μg/mL)
CNCCNC(=O)c1cn(CC(=O)N[C@H]2Cc3cccc(C(=O)O)c3OB2O)nn1 [Example 87, (R)-2-hydroxy-3-(2-(4-((2-(methylamino)ethyl)carbamoyl)-1H-1,2,3-triazol-1-yl)acetamido)-3,4-dihydro-2H-benzo[e][1,2]oxaborinine-8-carboxylic acid]	< 100 nM	1000 to 10000 nM	100 to 1000 nM	C (C represents an MIC of <1 μg/mL)	< 100 nM	C (C represents an MIC of <1 μg/mL)	< 100 nM	C (C represents an MIC of <1 μg/mL)	B (B represents an MIC between 1 and 16 μg/mL inclusive)	C (C represents an MIC of <1 μg/mL)	C (C represents an MIC of <1 μg/mL)
O=C(Cn1cc(C(=O)NC2CNC2)nn1)N[C@H]1Cc2cccc(C(=O)O)c2OB1O [Example 88, (R)-3-(2-(4-(azetidin-3-ylcarbamoyl)-1H-1,2,3-triazol-1-yl)acetamido)-2-hydroxy-3,4-dihydro-2H-benzo[e][1,2]oxaborinine-8-carboxylic acid]	< 100 nM	1000 to 10000 nM	100 to 1000 nM	B (B represents an MIC between 1 and 16 μg/mL inclusive)	< 100 nM	C (C represents an MIC of <1 μg/mL)	< 100 nM	C (C represents an MIC of <1 μg/mL)	B (B represents an MIC between 1 and 16 μg/mL inclusive)	C (C represents an MIC of <1 μg/mL)	C (C represents an MIC of <1 μg/mL)
